Values quoted from earlier work in patent US20080312310A1, “Compounds, Compositions and Methods” (Cytokinetics, Inc., priority 2002, published 2008).

test system: A549 cells; details: data provided by National Cancer Institute, Developmental Therapeutic Program

Point of comparison: `NC(=O)NO` [hydroxyurea], GI50 500000 nM. Against it:
- COc1cccc2c1C(=O)c1c(O)c3c(c(O)c1C2=O)C[C@@](O)(C(=O)CO)C[C@@H]3O[C@H]1C[C@H](N)[C@H](O)[C@H](C)O1 [doxorubicin] — 7900-fold lower, 63 nM
- CC(=O)O[C@H]1C(=O)[C@@]2(C)[C@H]([C@H](OC(=O)c3ccccc3)[C@]3(O)C[C@H](OC(=O)[C@H](O)[C@@H](NC(=O)c4ccccc4)c4ccccc4)C(C)=C1C3(C)C)[C@]1(OC(C)=O)CO[C@@H]1C[C@@H]2O [paclitaxel] — far lower, 4 nM
- O=c1[nH]cc(F)c(=O)[nH]1 [5-fluorouracil] — 500-fold lower, 1000 nM
